What all share (type): in vivo
Experiment [1] deals with field madder (Sherardia arvensis L.). The experiment can be described thus: Field weed control by penoxsulam plus florasulam, SHRAR. The conditions noted are these: 99-175 DAA. The method, then: (§1) Field trials were conducted in olive tree crops in Spain using standard herbicide small plot research methodology. Plot size was typical for small plot research in tree crops, varying from 4 to 10 meters (m) wide by 4 to 10 m long. […] Soil types ranged from coarse to medium to fine soil texture. Perennial olive crops were transplanted by hand into orchards as per normal local cultural practices. The olive crop was grown using normal cultural practices for fertilization, watering and maintenance to ensure good growth of the crop and the weeds.
(§2) Treatments were applied by backpack sprayer using either compressed air or CO2, at spray pressures at 300 kilopascals (kPa). Spray tips were typically Flat Fan Teejet nozzles, such as FanJet 120 or Teejet 11003 VP. Spray volumes were approximately 300 liters per hectare (L/ha). […]
(§3) For each treatment, the appropriate formulated product amount to treat the plot area, to achieve the desired application rate, based on unit area of application (hectare), was calculated, measured, and mixed in water prior to applying with the backpack sprayer […]

For experiment [2], the system named is henbit (Lamium amplexicaule L.). The experiment can be described thus: Field weed control by penoxsulam plus florasulam, LAMAM. Conditions: 30-45 DAA. The method, then: as §1
(§4) Treatments were applied by backpack sprayer using either compressed air or CO2, at spray pressures at 300 kilopascals (kPa). Spray tips were typically Flat Fan Teejet nozzles, such as FanJet 120 or Teejet 11003 VP. Spray volumes were approximately 300 liters per hectare (L/ha). The weed spectrum included, but was not limited to, chamomile, (Anthemis cotula L., […]), field marigold (Calendula arvensis, CLDAR), henbit (Lamium amplexicaule L, LAMAM), annual sowthistle (Sonchus oleraceus L., SONOL), common mallow (Malva neglecta Wallr., MALNE), corn salad (Valerianella echinata, VLLEC), horseweed (Conyza canadensis (L.) Cronq., ERICA), field madder (Sherardia arvensis L., SHRAR), and sowthistle (Sonchus species, SONSS). Treatments were applied preemergence or early postemergence to the stage of the weeds. Olive tree spacings were typically rows that were 7 to 8 m apart, and trees in the row were from 4 to 6 m apart.
(§5) For each treatment, the appropriate formulated product amount to treat the plot area, to achieve the desired application rate, based on unit area of application (hectare), was calculated, measured, and mixed in water prior to applying with the backpack sprayer
(§6) Treatments were rated as compared to the untreated control plots.
(§7) The treated plots and control plots were rated blind at various intervals after application. Ratings were based of Percent (%) Visual weed control, where 0 corresponds to no injury and 100 corresponds to complete kill.
(§8) The following equation was used to calculate the expected activity of mixtures containing two active ingredients, A and B: Expected=A+B−(A×B/100)
(§9) A=observed efficacy of active ingredient A at the same concentration as used in the mixture;
(§10) B=observed efficacy of active ingredient B at the same concentration as used in the mixture.

Experiment [3] concerns annual sowthistle (Sonchus oleraceus L.). In words: Field weed control by penoxsulam plus florasulam, SONOL. The conditions noted are these: 30-45 DAA. The method, then:
as §1, §4, §5, §6, §7, §8, §9, §10

The test system of experiment [4] is corn salad (Valerianella echinata). In words: Field weed control by penoxsulam plus florasulam, VLLEC. The conditions noted are these: 90 DAA. As for the experimental part:
as §1, §4, §5, §6, §7, §8, §9, §10

The test system of experiment [5] is chamomile, mayweed (Anthemis cotula L.). The experiment can be described thus: Field weed control by penoxsulam plus florasulam, ANTCO. The conditions noted are these: 30-45 DAA. As for the experimental part: as §1, §4, §5, §6, §7, §8, §9, §10
Experiment [6] deals with sowthistle (Sonchus species). The experiment can be described thus: Field weed control by penoxsulam plus florasulam, SONSS. The conditions noted are these: 99-175 DAA. The method, then: as §1, §2, §3
In experiment [7] the test system is field marigold (Calendula arvensis). The experiment can be described thus: Field weed control by penoxsulam plus florasulam, CLDAR. Conditions: 30-45 DAA. As for the experimental part: as §1, §2, §3
For experiment [8], the system named is common mallow (Malva neglecta Wallr.). The experiment can be described thus: Field weed control by penoxsulam plus florasulam, MALNE. Conditions: 90 DAA. As for the experimental part: as §1, §2, §3
For experiment [9], the system named is horseweed (Conyza canadensis (L.) Cronq.). In words: Field weed control by penoxsulam plus florasulam, ERICA. Conditions: 99-175 DAA. The method, then: as §1, §2, §3

In the case of `COc1cnc(OC)n2nc(NS(=O)(=O)c3c(OCC(F)F)cccc3C(F)(F)F)nc12` [Penoxsulam], in experiment [1] (penoxsulam 20 gai/ha), the “% Control SHRAR Obs” value was 0%. Besides, the results for the “% Control LAMAM Obs” value in [2] (penoxsulam 10 gai/ha), in experiment [2] (penoxsulam 13 gai/ha) and in [2] (penoxsulam 15 gai/ha) were 0%, 0% and 4%, respectively. In addition, the entries for the “% Control SONOL Obs” value in experiment [3] (penoxsulam 10 gai/ha), in [3] (penoxsulam 13 gai/ha) and in experiment [3] (penoxsulam 15 gai/ha) were 0%, 2% and 5%, respectively. Further, the “% Control VLLEC Obs” value in experiment [4] (penoxsulam 10 gai/ha) and in experiment [4] (penoxsulam 13 gai/ha) was 80% throughout. In addition, the “% Control ANTCO Obs” value in [5] (penoxsulam 10 gai/ha) was determined as 0%; in experiment [5] (penoxsulam 13 gai/ha), 5%; in experiment [5] (penoxsulam 15 gai/ha) it was 5%. The “% Control SONSS Obs” value in experiment [6] (penoxsulam 20 gai/ha) is recorded as 53%. Also, the “% Control CLDAR Obs” value in experiment [7] (penoxsulam 10 gai/ha) turned out to be 5%. The “% Control MALNE Obs” value in experiment [8] (penoxsulam 10 gai/ha) is reported as 8%. The “% Control ERICA Obs” value in [9] (penoxsulam 20 gai/ha) stood at 23%.
With `COc1ncc(F)c2nc(S(=O)(=O)Nc3c(F)cccc3F)nn12` [Florasulam, N-(2,6-difluorophenyl)-8-fluoro-5-methoxy[1,2,4]-triazolo[1,5-c]pyrimidine-2-sulfonamide], the “% Control SHRAR Obs” value in experiment [1] (florasulam 7.5 gai/ha) is on record as 0%. In addition, the “% Control LAMAM Obs” value in experiment [2] (florasulam 5 gai/ha) is recorded as 5%; in experiment [2] (florasulam 6.3 gai/ha), 30%; in experiment [2] (florasulam 7.5 gai/ha) it was 30%. Moreover, the figures for the “% Control SONOL Obs” value in experiment [3] (florasulam 5 gai/ha), in [3] (florasulam 6.3 gai/ha) and in [3] (florasulam 7.5 gai/ha) were 50%, 60% and 60%, respectively. The “% Control VLLEC Obs” value in experiment [4] (florasulam 5 gai/ha) and in experiment [4] (florasulam 6.3 gai/ha) was 10% throughout. The “% Control ANTCO Obs” value turned out to be 50% in experiment [5] (florasulam 5 gai/ha), 69% in experiment [5] (florasulam 6.3 gai/ha) and 95% in experiment [5] (florasulam 7.5 gai/ha). The “% Control SONSS Obs” value in experiment [6] (florasulam 7.5 gai/ha) amounted to 8%. For the same compound, the “% Control CLDAR Obs” value in experiment [7] (florasulam 5 gai/ha) turned out to be 40%. In experiment [8] (florasulam 5 gai/ha), the “% Control MALNE Obs” value amounted to 50%. Moreover, the “% Control ERICA Obs” value in experiment [9] (florasulam 7.5 gai/ha) was 51%.

The record behind these values is patent US8680010B2, “Synergistic herbicidal composition containing penoxsulam and florasulam” (Dow AgroSciences, LLC., priority 2011, dated 2014).
